In patent US12668599B2, “Heterobifunctional compounds and methods of treating disease” (Halda Therapeutics OpCo, Inc., priority 2023, dated 2026):

Legend:
[1] = test system: T47D cells; test: Cellular growth inhibition assay for T47D cells (CellTiter-Glo 2.0, 72 hours); assay type: cell-based, human; conditions: Homo sapiens, T47D, 72 h
Experimental: Exemplary compounds were tested for ability to inhibit the proliferation of T47D cells. T47D cells are a commercially available human breast cancer cell line.
T47D cells were purchased from American Type Cell Culture (ATCC Cat #HTB-133) and then seeded on poly-D-lysine coated, black clear-bottom 384-well plates at 3000/well in 25 μL Dulbecco's Modified Eagle Medium (DMEM) supplemented with 10% w/w Fetal bovine serum (FBS), 0.2 units/mL recombinant human insulin (Gibco Cat #12585014), and 1% w/w Pen-Strep. Pen-Strep is a commercially available mixture of penicillin G and streptomycin, which is used in mammalian cell culture media to prevent bacterial contamination. Dulbecco's Modified Eagle Medium (DMEM) supplemented with 10% w/w fetal bovine serum (FBS), 0.2 units/mL recombinant human insulin, and 1% w/w Pen-Strep is herein referred to as Treatment Medium. Following seeding of cells in the plates, the plates were spun at 300×g for 30 seconds, then equilibrated to room temperature for 30 minutes, and then deposited in a humidified tissue culture incubator maintained at 37° C. with 5% CO2.
At 24 hours after seeding of the cells, dilutions of test compound were prepared in DMSO and dissolved in Treatment Medium, to achieve a final DMSO concentration of 0.5% w/w, thereby providing the Test Compound Solution. A 25 μL aliquot of the Test Compound Solution was added to cells in the well plates. An equal volume of a solution containing DMSO and Treatment Medium was used as a negative control. Following treatment of cells with Test Compound Solution or said equal volume of a solution containing DMSO and Treatment Medium, the plates were spun at 300×g for 30 seconds, and then left in an incubator for 72 hours.
At the end of the treatment duration, cell viability was quantified with CellTiter-Glo 2.0 reagent (Promega Cat #G9243). For this purpose, plates were equilibrated to room temperature for 30 minutes, and then 25 μL of CellTiter-Glo 2.0 reagent was added to cells in the plate wells. Plates were then agitated on a shaker for two minutes at 500 rpm and subsequently incubated at room temperature for 10 minutes. Following incubation, the plates were spun at 3000×g for 30 seconds, then sealed with an optical adhesive cover, and luminescence readings were measured with an En Vision Plate Reader (Perkin Elmer).
Data was normalized using zero luminescence for baseline. A four-parameter non-linear regression curve fit was applied to dose-response data in GraphPad Prism data analysis software to determine the half-maximal growth inhibitory concentration (GI50) for each test compound.

[2] = test system: androgen receptor WT, T878A, L702H and H875Y and BRD4 protein; test: Ternary complex formation in TRex293 cells with doxycycline inducible androgen receptor (AR capture / HRP-BRD4 antibody ELISA); assay type: cell-based; conditions: Trex293 cells engineered to express wtAR and the T878A, L702H and H875Y AR mutants, 1 hour treatment, FIG. 2
Experimental: Compound II-5 was tested for ability to form a ternary complex containing Compound II-5, androgen receptor, and bromodomain-containing protein 4 (BRD4) protein using TRex293 cells induced to express elevated levels of androgen receptor.
TRex293 cells expressing doxycycline inducible androgen receptor WT, T878A, L702H and H875Y were generated and cultured in DMEM medium supplemented with 10% heat inactivated fetal bovine serum, and 1% pen-strep (culture medium). 25,000 cells were seeded per well in 100 μL of phenol red free DMEM containing 10% CSS, 1% pen strep, and 10 ng/mL doxycycline in a clear 96-well poly-D-lysine coated plate. Plates were incubated at 37° C. Black, opaque 96-well MaxiSorp plates were coated with 50 μL of androgen receptor antibody diluted in phosphate buffered saline (PBS). The coated plates were sealed and placed at 4° C. overnight. Plates coated with androgen receptor antibody were washed three times with 200 μL 1× tris -buffered saline plus 0.1% Tween20 (TBST), then blocked with 200 μL of 3% bovine serum albumin in TBST for 1 hour at room temperature. Test compound titrations were diluted in culture medium. 100 μL of the test compound/media mixture was added to the cell plate. After treatment, plates were incubated for 1 hour. Then, cells were washed once with 250 μL 1× PBS. […] Fluorescent endpoint read was conducted on a SpectraMax plate reader.

[3] = test system: VCaP cells; test: Cellular growth inhibition assay for VCaP cells (CellTiter-Glo 2.0, 72 hours); assay type: cell-based, human

## COc1cc(O[C@H]2C(C)(C)[C@H](NC(=O)c3cnc(N4CCC5(CC4)CC(Oc4ccc(C6=N[C@@H](Cc7ncco7)c7nnc(C)n7-c7sc(C)c(C)c76)cc4)C5)nc3)C2(C)C)ccc1C#N [II-5, N-[(1r,3r)-3-(4-cyano-3-methoxy-phenoxy)-2,2,4,4-tetramethyl-cyclobutyl]-2-[2-[4-[(9S)-4,5,13-trimethyl-9-(oxazol-2-ylmethyl)-3-thia-1,8,11,12-tetrazatricyclo[8.3.0.0^2,6]trideca-2 (6),4,7,10,12-pentaen-7-yl]phenoxy]-7-azaspiro[3.5]nonan-7-yl]pyrimidine-5-carboxamide]
[1]
  GI50: < 500 nM
[2]
  ternary complex formation between Compound II-5, androgen receptor, and BRD4: detected
[3]; GI50 of the top compound in the pair divided by GI50 of the lower compound
  Ratio of GI50's: 1
[3]; Homo sapiens, VCaP, 72 h, CellTiter-Glo 2.0
  GI50: < 500 nM
